Test results from EP4806894A1, “TNAP INHIBITORY COMPOUND AND USE THEREOF” (Rednvia Co., Ltd., priority 2023, dated 2025).

Tests used:
TNAP = target: T1, TNAP (Homo sapiens, UniProt P05186); assay: TNAP inhibitory activity, colorimetric assay (alkaline phosphatase assay kit ab83369, pNPP substrate); type: biochemical; conditions: TNAP enzyme, 2 hours at room temperature, absorbance 405 nm
T1 sequence (P05186 18-502 limits assumed): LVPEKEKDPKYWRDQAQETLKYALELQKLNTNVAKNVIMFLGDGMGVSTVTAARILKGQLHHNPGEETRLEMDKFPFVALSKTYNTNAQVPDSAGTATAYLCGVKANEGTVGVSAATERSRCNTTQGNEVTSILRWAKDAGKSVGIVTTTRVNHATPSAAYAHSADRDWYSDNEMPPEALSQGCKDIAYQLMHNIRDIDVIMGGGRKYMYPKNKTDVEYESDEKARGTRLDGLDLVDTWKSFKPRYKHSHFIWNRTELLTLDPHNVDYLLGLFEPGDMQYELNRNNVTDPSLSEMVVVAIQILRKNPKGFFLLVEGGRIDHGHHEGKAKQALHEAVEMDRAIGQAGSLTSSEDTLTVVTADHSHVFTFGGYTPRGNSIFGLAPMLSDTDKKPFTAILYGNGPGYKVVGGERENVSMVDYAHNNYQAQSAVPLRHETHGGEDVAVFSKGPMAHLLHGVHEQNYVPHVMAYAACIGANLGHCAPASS

saos-2 cells = assay: Anticalcification efficacy in saos-2 cells (osteogenic medium, Alizarin Red staining); type: cell-based; conditions: Homo sapiens, 168 h, test compound 1 µM, 7 days osteogenic medium, Alizarin Red absorbance 540 nm, read-out: calcification inhibition
Procedure, shortened: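 Saos-2 cells at 80–90% confluence induced for 7 days in osteogenic medium (DMEM, 100 nM dexamethasone, 10 mM β-glycerophosphate, 0.05 mM ascorbic acid), compound (0.5, 1, 5, 10 […]) added with each medium change. Alizarin Red staining eluted with cetylpyridinium chloride, A540 read; inhibition taken against OM-only absorbance.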

SMILES	IC50 (TNAP) [µM]	inhibition at 1 µM (saos-2 cells) [%]
CCOC(=O)N1CCc2ncc(NS(=O)(=O)c3cc(Br)ccc3OC)cc2C1 [Example 97, ethyl3-((5-bromo-2-methoxyphenyl)sulfonamido)-7,8-dihydro-1,6-naphthyridine-6(5H)-carboxylate]	0.1 to 1	≥ 50
COc1ccc(Cl)cc1S(=O)(=O)Nc1cnc2c(c1)CN(C(=O)OCC(C)(C)C)CC2 [Example 98, neopentyl3-((5-chloro-2-methoxyphenyl)sulfonamido)-7,8-dihydro-1,6-naphthyridine-6(5H)-carboxylate]	0.1 to 1	≥ 50
COc1ccc(Br)cc1S(=O)(=O)Nc1cnc2c(c1)CN(C(=O)OCC(C)(C)C)CC2 [Example 99, neopentyl3-((5-bromo-2-methoxyphenyl)sulfonamido)-7,8-dihydro-1,6-naphthyridine-6(5H)-carboxylate]	0.1 to 1	< 0
COc1ccc(OC)c(S(=O)(=O)Nc2cnc3c(c2)CN(C(=O)OCC(C)(C)C)CC3)c1 [Example 100, neopentyl3-((5-methoxy-2-methoxyphenyl)sulfonamido)-7,8-dihydro-1,6-naphthyridine-6(5H)-carboxylate]	0.1 to 1	≥ 50
CCCCCNC(=O)N1CCc2ncc(NS(=O)(=O)c3cc(Cl)ccc3OC)cc2C1 [Example 106, 3-((5-chloro-2-methoxyphenyl)sulfonamido)-N-pentyl-7,8-dihydro-1,6-naphthyridine-6(5H)-carboxamide]	0.1 to 1	≥ 50
CNC(=O)N1CCc2ncc(NS(=O)(=O)c3cc(Br)ccc3OC)cc2C1 [Example 111, 3-((5-bromo-2-methoxyphenyl)sulfonamido)-N-methyl-7,8-dihydro-1,6-naphthyridine-6(5H)-carboxamide]	0.01 to 0.1	≥ 50
COc1ccc(Cl)cc1S(=O)(=O)Nc1cnc2c(c1)CN(C(C)C)CC2 [Example 112, 5-chloro-N-(6-isopropyl-5,6,7,8-tetrahydro-1,6-naphthyridine-3-yl)-2-methoxybenzenesulfonamide]	0.1 to 1	< 0
COc1ccc(Br)cc1S(=O)(=O)Nc1cnc2c(c1)CN(C(C)C)CC2 [Example 113, 5-bromo-N-(6-isopropyl-5,6,7,8-tetrahydro-1,6-naphthyridine-3-yl)-2-methoxybenzenesulfonamide]	0.1 to 1	< 0
COc1ccc(Cl)cc1S(=O)(=O)Nc1cnc2c(c1)CN(C(=O)NCC1CC1)CC2 [Example 116, 3-((5-chloro-2-methoxyphenyl)sulfonamido)-N-(cyclopropylmethyl)-7,8-dihydro-1,6-naphthyridine-6(5H)-carboxamide]	0.01 to 0.1	≥ 50
COc1ccc(Cl)cc1S(=O)(=O)Nc1cnc2c(c1)CN(C(=O)NCCF)CC2 [Example 117, 3-((5-chloro-2-methoxyphenyl)sulfonamido)-N-(2-fluoroethyl)-7,8-dihydro-1,6-naphthyridine-6(5H)-carboxamide]	0.01 to 0.1	≥ 50
COc1ccc(Cl)cc1S(=O)(=O)Nc1cnc2c(c1)CN(C(=O)CC(C)(C)C)CC2 [Example 118, 5-chloro-N-(6-(3,3-dimethylbutanoyl)-5,6,7,8-tetrahydro-1,6-naphthyridine-3-yl)-2-methoxybenzenesulfonamide]	0.01 to 0.1	≥ 50
COc1ccc(Br)cc1S(=O)(=O)Nc1cnc2c(c1)CN(C(=O)CC(C)(C)C)CC2 [Example 119, 5-bromo-N-(6-(3,3-dimethylbutanoyl)-5,6,7,8-tetrahydro-1,6-naphthyridine-3-yl)-2-methoxybenzenesulfonamide]	0.01 to 0.1	≥ 50
COc1ccc(-c2cnn(-c3ccncc3)c2)cc1S(=O)(=O)Nc1cnc2c(c1)C(=O)NCC2 [Example 120, 2-methoxy-N-(5-oxo-5,6,7,8-tetrahydro-1,6-naphthyridine-3-yl)-5-(1-(pyridine-4-yl)-1H-pyrazole-4-yl)benzenesulfonamide]	0.1 to 1	< 0
COc1ccc(-c2c(C)nn(C)c2C)cc1S(=O)(=O)Nc1cnc2c(c1)C(=O)NCC2 [Example 121, 2-methoxy-N-(5-oxo-5,6,7,8-tetrahydro-1,6-naphthyridine-3-yl)-5-(1,3,5-trimethyl-1H-pyrazole-4-yl)benzenesulfonamide]	0.1 to 1	< 0
COc1ccc(-c2cnn(C(C)(C)C)c2)cc1S(=O)(=O)Nc1cnc2c(c1)C(=O)NCC2 [Example 122, 5-(1-(tert-butyl)-1H-pyrazole-4-yl)-2-methoxy-N-(5-oxo-5,6,7,8-tetrahydro-1,6-naphthyridine-3-yl)benzenesulfonamide]	0.01 to 0.1	< 0
CCCCn1cc(-c2ccc(OC)c(S(=O)(=O)Nc3cnc4c(c3)C(=O)NCC4)c2)cn1 [Example 123, 5-(1-butyl-1H-pyrazole-4-yl)-2-methoxy-N-(5-oxo-5,6,7,8-tetrahydro-1,6-naphthyridine-3-yl)benzenesulfonamide]	0.01 to 0.1	≥ 50
COc1ccc(-c2cnn(-c3ccccc3)c2)cc1S(=O)(=O)Nc1cnc2c(c1)C(=O)NCC2 [Example 124, 2-methoxy-N-(5-oxo-5,6,7,8-tetrahydro-1,6-naphthyridine-3-yl)-5-(1-phenyl-1H-pyrazole-4-yl)benzenesulfonamide]	0.1 to 1	< 0

Second part, led by results:

IC50 (TNAP) [µM]	SMILES	inhibition at 1 µM (saos-2 cells) [%]
0.01 to 0.1	COc1ccc(Cl)cc1S(=O)(=O)Nc1cnc2c(c1)CN(C(=O)OCCF)CC2 [Example 101, 2-fluoroethyl-3-((5-chloro-2-methoxyphenyl)sulfonamido)-7,8-dihydro-1,6-naphthyridine-6(5H)-carboxylate]	< 0
0.01 to 0.1	COc1ccc(Br)cc1S(=O)(=O)Nc1cnc2c(c1)CN(C(=O)OCCF)CC2 [Example 102, 2-fluoroethyl3-((5-bromo-2-methoxyphenyl)sulfonamido)-7,8-dihydro-1,6-naphthyridine-6(5H)-carboxylate]	≥ 50
0.01 to 0.1	COc1ccc(OC)c(S(=O)(=O)Nc2cnc3c(c2)CN(C(=O)OCCF)CC3)c1 [Example 103, 2-fluoroethyl-3-((5-methoxy-2-methoxyphenyl)sulfonamido)-7,8-dihydro-1,6-naphthyridine-6(5H)-carboxylate]	≥ 50
0.01 to 0.1	COc1ccc(Cl)cc1S(=O)(=O)Nc1cnc2c(c1)CN(C(=O)NC(C)C)CC2 [Example 104, 3-((5-chloro-2-methoxyphenyl)sulfonamido)-N-isopropyl-7,8-dihydro-1,6-naphthyridine-6(5H)-carboxamide]	≥ 50
0.01 to 0.1	COc1ccc(F)cc1S(=O)(=O)Nc1cnc2c(c1)CN(C(=O)NC(C)C)CC2 [Example 105, 3-((5-fluoro-2-methoxyphenyl)sulfonamido)-N-isopropyl-7,8-dihydro-1,6-naphthyridine-6(5H)-carboxamide]	≥ 50
0.01 to 0.1	COc1ccc(Cl)cc1S(=O)(=O)Nc1cnc2c(c1)CN(C(=O)NCC(F)F)CC2 [Example 107, 3-((5-chloro-2-methoxyphenyl)sulfonamido)-N-(2,2-difluoroethyl)-7,8-dihydro-1,6-naphthyridine-6(5H)-carboxamide]	≥ 50
0.01 to 0.1	COc1ccc(Br)cc1S(=O)(=O)Nc1cnc2c(c1)CN(C(=O)NCC(F)F)CC2 [Example 108, 3-((5-bromo-2-methoxyphenyl)sulfonamido)-N-(2,2-difluoroethyl)-7,8-dihydro-1,6-naphthyridine-6(5H)-carboxamide]	≥ 50
0.01 to 0.1	COc1ccc(Cl)cc1S(=O)(=O)Nc1cnc2c(c1)CN(C(=O)N1CCOCC1)CC2 [Example 109, 5-chloro-2-methoxy-N-(6-(morpholine-4-carbonyl)-5,6,7,8-tetrahydro-1,6-naphthyridine-3-yl)benzenesulfonamide]	≥ 50
0.01 to 0.1	COc1ccc(Br)cc1S(=O)(=O)Nc1cnc2c(c1)CN(C(=O)N1CCOCC1)CC2 [Example 110, 5-bromo-2-methoxy-N-(6-(morpholine-4-carbonyl)-5,6,7,8-tetrahydro-1,6-naphthyridine-3-yl)benzenesulfonamide]	≥ 50
0.01 to 0.1	COc1ccc(Cl)cc1S(=O)(=O)Nc1cnc2c(c1)CN(c1ncccn1)CC2 [Example 114, 3-5-chloro-2-methoxy-N-(6-(pyrimidine-2-yl)-5,6,7,8-tetrahydro-1,6-naphthyridine-3-yl)benzenesulfonamide]	≥ 50
0.01 to 0.1	COc1ccc(Cl)cc1S(=O)(=O)Nc1cnc2c(c1)CN(C(=O)Nc1ccccc1)CC2 [Example 115, 3-((5-chloro-2-methoxyphenyl)sulfonamido)-N-phenyl-7,8-dihydro-1,6-naphthyridine-6(5H)-carboxamide]	≥ 50
